# Source: patent publication US8927569
# Conditions: from C=CCC(C)(C)COC(=O)N[C@H](C(=O)N1C[C@H](Oc2cc(=O)[nH]c3cc(OC)c(C=C)cc23)C[C@H]1C(=O)OC)C1CCCCC1; rcm bond; Zhan 1b catalyst; DCM; 5.0 mM; 40.0 °C; 32.0 h
compound,measurement,value
COC(=O)[C@@H]1C[C@@H]2CN1C(=O)[C@H](C1CCCCC1)NC(=O)OCC(C)(C)C/C=C/c1cc3c(cc(=O)[nH]c3cc1OC)O2,"ring closure, yield of all isomers",99%
